Consider one compound from patent publication US4318916A, “Antibiotic PS-5 and derivatives having β-lactamase inhibitory activity and production thereof” (Sanraku-Ocean Co., Ltd., priority 1977, dated 1982).

A short description of the data set: pH and heat stability of antibiotic PS-5 in aqueous solution. It counts as physicochemical. The conditions noted are these: phosphate buffer, yellowish brown powder of Example 5. As for the experimental part:
Phosphate buffer solutions of the indicated pH's were made by adjusting M/15 dipotassium phosphate to a desired pH with 5 N NaOH or 5 N phosphoric acid. To 1 milliliter of the antibiotic PS-5 solution, 1 milliliter of the phosphate buffer was added and, if necessary, the pH value was readjusted to the initial value. The antibiotic PS-5 solutions with varied pH's were kept at 60° C. for 30 minutes in a water bath, cooled in running water and neutralized to pH 7.0 with a small amount of 5 N NaOH or 5 N phosphoric acid. The control tube containing the antibiotic PS-5 solution of pH 7.0 was put in an ice bath for 30 minutes. The remaining antimicrobial activity was determined as described above, utilizing Comamonas terrigena B-996 as the assay microorganism. The results shown in the following table were calculated as percent of the control: […]

On to `CCC1C(=O)N2C(C(=O)O)=C(SCCNC(C)=O)CC12` (single isomer, unassigned) [Antibiotic PS-5], for which the share remaining (in general, what is left of the initial amount, in per cent) at 0.5 h (pH 3, pH 3.0, 60° C. for 30 minutes, percent of control) was found to be 0%; the amount remaining at 0.5 h (pH 4, pH 4.0, 60° C. for 30 minutes) turned out to be 0%; the fraction remaining at 0.5 h (pH 5, pH 5.0, 60° C. for 30 minutes) stood at 9%; the fraction remaining at 0.5 h (pH 6, pH 6.0, 60° C. for 30 minutes) turned out to be 79%; the fraction remaining at 0.5 h (pH 7, pH 7.0, 60° C. for 30 minutes) was determined as 76.5%; the share remaining at 0.5 h (pH 8, pH 8.0, 60° C. for 30 minutes) stood at 88.5%. For the same compound, the amount remaining at 0.5 h (pH 9, pH 9.0, 60° C. for 30 minutes) stood at 82%.
